Measurements taken from patent US10441562B2, “Aromatic farnesyl compound and application thereof” (INSTITUTE OF MICROBIOLOGY, CHINESE ACADEMY OF SCIENCES, priority 2015, dated 2019).
Marks after values point to notes of the source that are not given here. Each block holds one compound with its values, some of them ahead of it.

Columns and labels:
[1] = test system: hyperglycemia KK-A^y mice; experiment: blood sugar of hyperglycemia KK-A^y mice; type: in vivo; parameters: blood sugar: unit not given here; conditions: metformin 8 g/kg, group 11
Method: (§1) Materials: accurately weigh the 2 compounds S13 and S28 discussed in example 2, and then add 0.5% CMC-Na to make the solution of 5 mg/ml used for activity test. KK-A^y mice are purchased from Chinese Academy of Medical Sciences & Peking Union Medical College Institute of Animal Studies. Experiments are carried out after adapting to the environment (T=20-24° C., constant humidity: 50-60%, 12 hours light exposure (8:00-20:00), soundproof, free feeding and drinking) for 1 week. Glucometer is purchased from Roche.
(§2) Methods: 10 male C57 mice of 6-8 weeks of 20-22 g are used as normal control group (1). Detect the fasting glucose of male KK-A^y mice, which are 6-8 weeks with the weight of 28-32 g, and divide them into different groups according to the blood sugar level and body weight: (2) model control group, (3) which is administered by compound S13 with the dose of 1 mg/kg, (4) which is administered by compound S13 with the dose of 5 mg/kg, (5) which is administered by compound S13 with the dose of 10 mg/kg, (6) which is administered by compound S13 with the dose of 20 mg/kg, (7) which is administered by compound S28 with the dose of 1 mg/kg, (8) which is administered by compound S28 with the dose of 5 mg/kg, (9) which is administered by compound S28 with the dose of 10 mg/kg, (10) which is administered by compound S28 with the dose of 20 mg/kg, (11) which is administered by metformin with the dose of 8 g/kg, (12) which is administered by compound S13 with the dose of 2.5 mg/kg and metformin with the dose of 4 g/kg, (13) which is administered by compound S13 with the dose of 5 mg/kg and metformin with the dose of 4 g/kg, (14) which is administered by compound S28 with the dose of 2.5 mg/kg and metformin with the dose of […], (15) which is administered by compound S28 with the dose of 5 mg/kg and metformin with the dose of […]. Each group has 8 mice, and is administrated successively for 3 weeks. Model control group is given with equal amounts of 0.5% CMC-Na.
1) Effects of drugs on blood sugar: at the first day after administration, the mice are fasted for 2 hours and blood is collected (0 h) to detect the fasting blood sugar. After the compound is given to the mice by intragastric administration for 30 min, blood is collected from tip of tail to detect the blood sugar level.
(§3) 2) Effects on body weight and blood sugar: the body weight of mice are recorded at the 2th, 5th, 8th, 11th, 14th, 17th, 20th day after administration, and blood is collected from tip of tail to detect the blood sugar level (see table 10).

[2] = body weight of hyperglycemia KK-A^y mice; type: in vivo; conditions: metformin 8 g/kg, group 11
Method: as §1, §2, §3

[3] = test system: hyperglycemia KK-A^y mice; experiment: glucose tolerance test (OGTT) in hyperglycemia KK-A^y mice; type: in vivo; conditions: OGTT 12th day, glucose 2.0 g/kg oral, metformin 8 g/kg, group 11
Method: as §1, with “KK-A^y” for “Materials: accurately weigh the 2 compounds S13 and S28 discussed in example 2, and then add 0.5% CMC-Na to make the solution of 5 mg/ml used for activity test. KK-A^y”
Each group has 8 mice, and is administrated successively for 3 weeks. Model control group is given with equal amounts of 0.5% CMC-Na.
3) Glucose tolerance test (OGTT): glucose tolerance is detected at the 12th day after administration. The mice are fasted for 12 hours and blood is collected (0 h). After being given with glucose (2.0 g/kg) by oral administration, blood is collected from tip of tail to detect the blood sugar level after 30 min, 60 min and 120 min respectively (see table 11).

[4] = test system: hyperglycemia KK-A^y mice; experiment: blood lipid and liver function of hyperglycemia KK-A^y mice; type: in vivo; conditions: 3 weeks, metformin 8 g/kg, group 11
Method: as §1, §2
4) After the last administration, the mice are executed under anesthesia, and blood is taken to be centrifuged at 3000 rpm in 4[…]. Serum total cholesterol, low density lipoprotein and triglyceride TG are detected.

α-glucosidase = target: T1, α-glucosidase (Saccharomyces cerevisiae, UniProt P53341); experiment: α-glucosidase inhibitory activity test in vitro; type: biochemical; conditions: read-out: α-glucosidase inhibitory activity (IC50)
T1 construct: purchased Sigma Corporation G5003
Method: Add 25 μL α-glucosidase water solution (0.2 U/mL) and 175 μL phosphate buffer (50 mM, pH 7.0) into 25 μL different concentration of the above test solutions. The mixed solution is standed for 10 min at room temperature, and then 25 μL 4-nitrophenyl-α-D-glucopyranoside water solution (2.5 mM) is added into the mixed solution. After the solution is incubated at 37 °C for 30 min and centrifuged at 5000 rpm for 5 minutes, 150 uL supernatant is added into 96-well plates and the absorbance is detected at 405 nm.
Blank group: the test solution is replaced by 25 μL phosphate buffer (50 mM, pH 7.0); blank control group: the test solution is replaced by 25 μL phosphate buffer (50 mM, pH 7.0), meanwhile α-glucosidase water solution is replaced by 25 μL phosphate buffer (50 mM, pH 7.0); sample control group: α-glucosidase water solution is replaced by 25 μL phosphate buffer (50 mM, pH 7.0).
(§4) Repeat each of the above experiment groups for 3 times, and then average the results.
IC50=[CL(IH−50)+CH(50−IL)]/(IH−IL) CL: low concentration value; CH: high concentration value; IH: inhibition rate in high concentration; IL: inhibition rate in low concentration

HMG-CoA reductase = target: T2, HMG-CoA reductase (Homo sapiens, UniProt P04035); experiment: HMG-CoA reductase inhibitory activity test in vitro; type: biochemical
T2 sequence (P04035 426-888 limits assumed): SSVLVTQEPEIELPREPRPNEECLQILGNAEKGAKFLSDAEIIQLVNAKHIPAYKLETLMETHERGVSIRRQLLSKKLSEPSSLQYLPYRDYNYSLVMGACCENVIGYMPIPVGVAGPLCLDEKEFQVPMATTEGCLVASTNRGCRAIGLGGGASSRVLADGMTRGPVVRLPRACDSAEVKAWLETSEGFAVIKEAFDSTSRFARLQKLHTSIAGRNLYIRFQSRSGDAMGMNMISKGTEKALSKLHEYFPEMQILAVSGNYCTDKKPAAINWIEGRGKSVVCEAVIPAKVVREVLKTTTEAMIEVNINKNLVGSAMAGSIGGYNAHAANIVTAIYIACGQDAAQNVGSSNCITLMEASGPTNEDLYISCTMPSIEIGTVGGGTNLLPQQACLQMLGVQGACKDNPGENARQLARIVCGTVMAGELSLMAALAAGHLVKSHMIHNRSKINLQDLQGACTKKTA
Method: Add 25 μL HMG-CoA reductase water solution (0.2 U/mL), 25 μL NADPH water solution (0.2 U/mL) and 24 μL phosphate buffer (50 mM, pH 7.0) into 1 μL different concentration of the above test solution. The mixed solution is standed for 10 min at room temperature, and then 25 μL HMG-CoA is added into the mixed solution. After the solution is incubated at 37∞ for 30 min and centrifuged at 5000 rpm for 5 minutes, 80 uL supernatant is added into 96-well plates and the absorbance is detected at 550 nm.
as §4

[5] = target: T3, protein tyrosine phosphatase 1B (PTP-1B) (Homo sapiens, UniProt P18031); experiment: PTP-1B inhibitory activity test in vitro; type: biochemical
T3 sequence (P18031 1-435): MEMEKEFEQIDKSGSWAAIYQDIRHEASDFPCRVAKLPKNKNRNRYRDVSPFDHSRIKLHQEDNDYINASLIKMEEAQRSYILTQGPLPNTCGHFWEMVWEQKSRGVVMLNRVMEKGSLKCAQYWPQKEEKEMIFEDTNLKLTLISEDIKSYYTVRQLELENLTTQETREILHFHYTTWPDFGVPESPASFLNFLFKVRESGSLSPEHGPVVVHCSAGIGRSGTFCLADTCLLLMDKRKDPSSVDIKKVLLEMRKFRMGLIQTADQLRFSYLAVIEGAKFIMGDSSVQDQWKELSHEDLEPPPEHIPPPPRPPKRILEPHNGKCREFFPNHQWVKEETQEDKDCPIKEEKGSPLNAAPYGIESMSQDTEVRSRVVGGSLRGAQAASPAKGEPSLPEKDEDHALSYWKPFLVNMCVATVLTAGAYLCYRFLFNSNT
Method: Experimental procedure: the following reagents are added into 96-well plates in sequence and the mixture ratios of different groups are as followings: Test group: 50 μL compound solution+50 μL 170 μg/mL PTP-1B solution […] Blank group: 50 μL buffer solution+50 μL 170 μg/mL PTP-1B solution Background group: 50 μL compound solution+50 μL buffer solution After adding the reagents, the 96-well plate is […] for 10 min at room temperature to make the compound and the enzyme react completely. Add 50 μL 1 mM pNPP solution which is used as substrate and incubate the mixed solution at 37 °C for 30 min. Then add 50 μL 3M NaOH into each well of the plate to stop the reaction and the optical density is detected at […].

aldose reductase = aldose reductase (Homo sapiens, UniProt P15121); experiment: aldose reductase inhibitory activity test in vitro; type: biochemical
Method: Experimental procedure: the following reagents are added into 96-well plates in sequence and the mixture ratios of different groups are as followings:
Test group: 10 μL compound solution+25 μL (0.1 mM) NADPH solution+25 μL PBS buffer solution+15 μL aldose reductase diluent
Blank group: 25 μL (0.1 mM) NADPH solution+35 μL PBS buffer solution+15 μL aldose reductase diluent
Background group: 25 μL (0.1 mM) NADPH solution+60 μL PBS buffer solution+15 μL aldose reductase diluent
After adding the reagents, the 96-well plate is standed for 10 min at room temperature to make the compound and the enzyme react completely. Add 25 μL 10 mM D, L glyceraldehyde solution which is used as substrate into the groups except for background group, and incubate the solution at 37 °C for 30 min. Then detect the optical density of each well at 340 nm.

dipeptidyl peptidase-4 = target: T4, dipeptidyl peptidase-4 (Homo sapiens, UniProt P27487); experiment: dipeptidyl peptidase-4 inhibitory activity test in vitro (DPP-4 inhibitor screening kit); type: biochemical
T4 construct: purchased
Source text: The above compounds are detected by DPP-4 inhibitor screening kit.

T4 sequence (P27487 whole entry, species assumed): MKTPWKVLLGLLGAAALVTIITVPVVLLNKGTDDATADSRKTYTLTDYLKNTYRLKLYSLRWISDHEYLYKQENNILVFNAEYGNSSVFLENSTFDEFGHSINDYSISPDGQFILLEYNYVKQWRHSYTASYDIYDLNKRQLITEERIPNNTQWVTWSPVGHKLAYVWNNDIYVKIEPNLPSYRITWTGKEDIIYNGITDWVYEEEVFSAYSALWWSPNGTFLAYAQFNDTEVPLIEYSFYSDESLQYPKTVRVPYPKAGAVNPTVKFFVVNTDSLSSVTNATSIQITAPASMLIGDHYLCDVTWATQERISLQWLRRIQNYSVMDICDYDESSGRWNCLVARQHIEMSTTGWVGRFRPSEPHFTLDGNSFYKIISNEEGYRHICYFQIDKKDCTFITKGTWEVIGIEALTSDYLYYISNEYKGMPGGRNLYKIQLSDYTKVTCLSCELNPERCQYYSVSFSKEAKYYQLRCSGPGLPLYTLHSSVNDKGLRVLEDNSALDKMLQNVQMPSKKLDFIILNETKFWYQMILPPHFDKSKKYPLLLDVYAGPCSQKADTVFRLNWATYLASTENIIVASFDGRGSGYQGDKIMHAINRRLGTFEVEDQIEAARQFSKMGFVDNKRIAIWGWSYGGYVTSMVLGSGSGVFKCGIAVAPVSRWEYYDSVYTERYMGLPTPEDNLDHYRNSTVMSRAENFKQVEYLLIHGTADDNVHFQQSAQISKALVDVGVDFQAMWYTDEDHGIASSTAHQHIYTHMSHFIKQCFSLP
T1 sequence (P53341 whole entry): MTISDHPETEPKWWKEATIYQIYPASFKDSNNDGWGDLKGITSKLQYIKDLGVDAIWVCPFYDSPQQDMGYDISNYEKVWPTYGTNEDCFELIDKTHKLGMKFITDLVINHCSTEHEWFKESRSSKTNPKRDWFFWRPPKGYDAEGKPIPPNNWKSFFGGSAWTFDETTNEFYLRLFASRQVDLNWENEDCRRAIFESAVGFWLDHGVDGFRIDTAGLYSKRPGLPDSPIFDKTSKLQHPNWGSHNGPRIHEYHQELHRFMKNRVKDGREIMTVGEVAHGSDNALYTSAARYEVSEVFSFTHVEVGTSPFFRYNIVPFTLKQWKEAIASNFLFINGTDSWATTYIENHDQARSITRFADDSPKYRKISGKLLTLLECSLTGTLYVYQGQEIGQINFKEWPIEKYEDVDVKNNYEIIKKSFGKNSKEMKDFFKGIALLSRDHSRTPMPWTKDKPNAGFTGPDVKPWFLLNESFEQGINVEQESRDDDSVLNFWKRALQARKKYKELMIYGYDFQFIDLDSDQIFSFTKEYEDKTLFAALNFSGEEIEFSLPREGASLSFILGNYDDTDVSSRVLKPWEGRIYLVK

SMILES: CN(C)C(=N)N=C(N)N [metformin, reference compound]
blood sugar at the 1st day, 0 ([1]; 1st day 0 h): 14.9
blood sugar at the 1st day, 30 min ([1]; 1st day 30 min after intragastric administration): 9.85
blood sugar ([1]; 2st day): 13.05
blood sugar ([1]; 5st day): 13.9
blood sugar ([1]; 8st day): 13.8
blood sugar ([1]; 11st day): 13.5
blood sugar ([1]; 14st day): 13.7
blood sugar ([1]; 17st day): 13.5
blood sugar ([1]; 20st day): 13.24
Body weight ([2]; 2st day): 30.7 g
Body weight ([2]; 5st day): 30.53 g
Body weight ([2]; 8st day): 30.8 g
Body weight ([2]; 11st day): 30.6 g
Body weight ([2]; 14st day): 30.7 g
Body weight ([2]; 17st day): 30.8 g
Body weight ([2]; 20st day): 30.5 g
glucose tolerance, blood sugar 0 min ([3]; 0 min): 6.5**
glucose tolerance, blood sugar 30 min ([3]; 30 min): 12.8**
glucose tolerance, blood sugar 60 min ([3]; 60 min): 10.47**
glucose tolerance, blood sugar 120 min ([3]; 120 min): 7.41**
ALT [4]: 89.6 U/L
AST [4]: 137.5 U/L
HDL-C [4]: 23.1 mg/dL
LDL-C [4]: 72 mg/dL
SOD [4]: 3.7 U/L
TC [4]: 176* mg/dL
TG [4]: 578 mg/dL

IC50 (α-glucosidase): 0.98 µM
IC50 (HMG-CoA reductase): 12.6 µM
IC50 [5]: 12.9 µM
IC50 (aldose reductase): 8.7 µM
IC50 (dipeptidyl peptidase-4): 15.2 µM
SMILES: CC(C)=CCC/C(C)=C/CC/C(=C/Cc1cc(O)ccc1O)C(=O)O [S34, (2Z,5E)-2-(2-(2,5-dihydroxyphenyl)ethylidene)-6,10-dimethylundeca-5,9-dienoic acid]

IC50 (α-glucosidase): 3.95 µM
IC50 (HMG-CoA reductase): 16.8 µM
IC50 [5]: 4.4 µM
IC50 (aldose reductase): 33.5 µM
IC50 (dipeptidyl peptidase-4): 23.5 µM
SMILES: CC(C)=CCC/C(C)=C/CCC1=C[C@@H](c2c(F)cccc2F)OC1=O [S29, (S,E)-5-(2,6-difluorophenyl)-3-(4,8-dimethylnona-3,7-dien-1-yl)furan-2(5H)-one]

IC50 (α-glucosidase): 0.21 µM
IC50 (HMG-CoA reductase): 13.8 µM
IC50 [5]: 4.7 µM
IC50 (aldose reductase): 9.5 µM
IC50 (dipeptidyl peptidase-4): 20.8 µM
SMILES: CC(C)=CCC/C(C)=C/CCC1=C[C@@H](c2ccccc2[N+](=O)[O-])OC1=O [S20, (S,E)-3-(4,8-dimethylnona-3,7-dien-1-yl)-5-(2-nitrophenyl)furan-2(5H)-one]

IC50 (α-glucosidase): 0.16 µM
IC50 (HMG-CoA reductase): 16.4 µM
IC50 [5]: 15.8 µM
IC50 (aldose reductase): 1.4 µM
IC50 (dipeptidyl peptidase-4): 19.1 µM
SMILES: CC(C)=CCC/C(C)=C/CCC1=C[C@H](c2ccc(C(C)(C)C)cc2)OC1=O [S9, (R,E)-5-(4-(tert-butyl)phenyl)-3-(4,8-dimethylnona-3,7-dien-1-yl)furan-2 (5H)-one]
